# In patent publication US4087561A, “Control of nitrosamine formation in nitride cured meat with 1,2,3,4-tetrahydro-quinoline compounds” (Canada Packers Limited, priority 1975, dated 1978):
# Key:
# [1] = Stability of the compound; type: physicochemical
# [2] = Volatile nitrosamine content of cook-out fat from fried nitrite-cured bacon slices streaked with test compound in soya oil; settings: for nitrosamine content of the fried meat: inferred from cook-out fat content; for nitrosamine content of cook-out fat from the test sample: 100 ppm on bacon slices, control sample 15 ppb
# Experimental: A portion of the foregoing product was dissolved in winterized soya oil to provide a 4.5% concentration and the resulting solution was streaked on bacon slices, which had undergone a conventional nitrite cure and plant processing, in quantities providing levels of 1,2,3,4-tetrahydro-2,2,4-trimethyl-6-ethoxyquinoline of from 5 ppm to 100 ppm in the meat. Control slices of bacon were streaked with the oil alone. The bacon slices were fried under standardized conditions and the cook-out fat was analyzed for volatile nitrosamine content.
# Since the analytical means available are not accurate below about 3 ppb (parts per billion), it will be seen that at levels of about 20 parts per million and greater of the test compound in the meat the amount of nitrosamines in the cook-out fat was reduced below the accurately determinable level.
# A portion of the 1,2,3,4-tetrahydro-2,4-diethyl-2-methyl-6-methoxyquinolineprepared as above was dissolved in winterized soya oil (4.5% concentration) and the resulting solution was streaked on nitrite cured, plant processed bacon slices at a level of 100 ppm in the meat. Control slices of bacon received oil alone. The bacon slices were fried and the cook-out fat was analyzed for volatile nitrosamine content as in Example 1.
# [3] = Control of nitrosamine formation in nitrite cured meat (general statements)
# [4] = Volatile nitrosamines in cook-out fat of fried bacon cured with pumping pickle containing test compound; settings: 150 mg = 50 ppm, in Tween 60, control sample 21 ppb
# Excerpt: This example is representative of the use of compounds of the general formula given above in a pumping pickle.
# A single pork belly (13.2 lb) was cut along the short dimension into two equal portions. Production pickle (300g), of a composition which has been generally described above, was pumped into one portion to be used as control. The other half was pumped with the same production pickle (300g) to which 1,2,3,4-tetrahydro-2,2,4-trimethyl-6-ethoxyquinoline, prepared as described in Example 1, (150 mg .ident. 50 ppm) in Tween 60 (500 mg) had been dispersed. Both portions were subsequently smoked, chilled, sliced, and packaged normally. The samples were then analyzed for nitrite content. The amount of nitrite found just before frying was 75 ppm in the control sample and 73 ppm in the test sample.
# Each sample of the bacon was then fried under standard frying conditions and the cook-out fat analyzed for volatile nitrosamines.
# [5] = cited from earlier work
smiles,measurement,setting,value
"CCOc1ccc2c(c1)C(C)CC(C)(C)N2 (stereo not shown) [1,2,3,4-tetrahydro-2,2,4-trimethyl-6-ethoxyquinoline]",stability at room temperature,"[1]; crystalline solid, room temperature",quite stable at room temperature
same,"Nitrosamines in cook-out fat, test product","[2]; Table I sample 1, 100 ppm in meat, control product 29 ppb",0 ppb
same,"Nitrosamines in cook-out fat, test product","[2]; Table I sample 2, 80 ppm in meat, control product 19 ppb",2 ppb
same,"Nitrosamines in cook-out fat, test product","[2]; Table I sample 3, 40 ppm in meat, control product 19 ppb",3 ppb
same,"Nitrosamines in cook-out fat, test product","[2]; Table I sample 4, 20 ppm in meat, control product 19 ppb",1 ppb
same,"Nitrosamines in cook-out fat, test product","[2]; Table I sample 5, 10 ppm in meat, control product 19 ppb",0 ppb
same,"Nitrosamines in cook-out fat, test product","[2]; Table I sample 6, 10 ppm in meat, control product 18 ppb",2 ppb
same,"Nitrosamines in cook-out fat, test product","[2]; Table I sample 7, 5 ppm in meat, control product 19 ppb",5 ppb
same,"Nitrosamines in cook-out fat, test product","[2]; Table I sample 8, 20 ppm in meat, control product 31 ppb",0 ppb
same,"Nitrosamines in cook-out fat, test product","[2]; Table I sample 9, 10 ppm in meat, control product 31 ppb",10 ppb
same,"Nitrosamines in cook-out fat, test product","[2]; Table I sample 10, 5 ppm in meat, control product 31 ppb",22 ppb
same,"Nitrosamines in cook-out fat, test product","[2]; Table I sample 11, 20 ppm in meat, control product 36 ppb",5 ppb
same,"Nitrosamines in cook-out fat, test product","[2]; Table I sample 12, 10 ppm in meat, control product 36 ppb",8 ppb
same,"Nitrosamines in cook-out fat, test product","[2]; Table I sample 13, 5 ppm in meat, control product 36 ppb",6 ppb
same,"Nitrosamines in cook-out fat, test product","[2]; Table I sample 14, 100 ppm in meat, control product 49 ppb",1 ppb
same,"Nitrosamines in cook-out fat, test product","[2]; Table I sample 15, 20 ppm in meat, control product 39 ppb",3 ppb
same,"Nitrosamines in cook-out fat, test product","[2]; Table I sample 16, 10 ppm in meat, control product 39 ppb",15 ppb
same,"Nitrosamines in cook-out fat, test product","[2]; Table I sample 17, 20 ppm in meat, control product 25 ppb",2 ppb
same,"Nitrosamines in cook-out fat, test product","[2]; Table I sample 18, 10 ppm in meat, control product 25 ppb",4 ppb
same,nitrosamine content of the fried meat,[2],virtually eliminated
same,reduction in the amount of nitrosamines formed,[2]; lesser amounts (below about 20 ppm in meat),"significant reduction in the amount of nitrosamines formed, in some instances reducing the nitrosamines below the accurately detectable level"
same,amount of nitrosamines in the cook-out fat,"[2]; levels of about 20 ppm and greater in meat, reduced below the accurately determinable level (about 3 ppb)",below 3 ppb
same,"effectiveness in the control of nitrosamines in nitrite cured meats, compared with ethoxyquin",[3],equally effective
same,volatile nitrosamines in cook-out fat of test sample,[4],did not show any detectable nitrosamine
"CCOc1ccc2c(c1)C(CC)CC(C)(CC)N2 (stereo not shown) [1,2,3,4-tetrahydro-2,4-diethyl-2-methyl-6-ethoxyquinoline]",nitrosamine content of cook-out fat from the test sample,[2],zero
"CCC1CC(C)(CC)Nc2ccc(OC)cc21 (stereo not shown) [1,2,3,4-tetrahydro-2,4-diethyl-2-methyl-6-methoxyquinoline]","Nitrosamines in cook-out fat, test product","[2]; Table II sample 1, 100 ppm in meat, control product 51 ppb",2 ppb
same,"Nitrosamines in cook-out fat, test product","[2]; Table II sample 2, 100 ppm in meat, control product 15 ppb",0 ppb
same,nitrosamine content of the cook-out fat,"[2]; each test sample of Table II, 100 ppm in meat, reduced below the accurately detectable level",< 3 ppb
same,nitrosamine content of the fried meat,[2],virtually free of such substances
"CCOc1ccc2c(c1)C(C)CC(C)(CC(C)C)N2 (stereo not shown) [1,2,3,4-tetrahydro-2,4-dimethyl-2-isobutyl-6-ethoxyquinoline]",nitrosamine content of cook-out fat from the test sample,[2],0.6 ppb
"COc1ccc2c(c1)CCCN2 [1,2,3,4-tetrahydro-6-methoxyquinoline]",nitrosamine content of cook-out fat from the test sample,[2],0.6 ppb
O=NN1CCCC1 [N-nitrosopyrrolidine],carcinogenicity in tests on experimental animals,[5],carcinogenic
CN(C)N=O [dimethylnitrosamine],carcinogenicity in tests on experimental animals,[5],carcinogenic
"CCOc1ccc2c(c1)C(C)=CC(C)(C)N2 [ethoxyquin, 1,2-dihydro-2,2,4-trimethyl-6-ethoxyquinoline, reference compound]",stability in the presence of air (darkening),"[1]; oily yellow liquid, presence of air",rather quickly turns dark in the presence of air
